Measurements reported in the supplement of paper PMC10307832.

Tests used:
Assay in all cases: relative viability (nuclei count vs DMSO), 5 days (fraction); higher = more cells survive
[1] = compound: C1=CC(=CC=C1NC(=S)NNC2=C(C=C(C=C2[N+](=O)[O-])C(F)(F)F)[N+](=O)[O-])F [Kobe2602] + N=C(N)NC(=N)NCCc1ccccc1 [Phenformin] (partner 250 µM)
How it was run: (§1)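 After 5 days of treatment, lung cancer cells in 1536-well plates were fixed and stained in a single step (final 0.05% Triton X-100, 1% formaldehyde, 1 ug/ml Hoechst) and their nuclei counted on 4× images. Treatment had been applied by pin tool the day after seeding as one drug alone or as a fixed anchor-drug dose with five library-drug doses (not always all listed) in √10 steps. Relative viability is the nuclei count of treated wells divided by that of vehicle wells, and values are medians of duplicate plates.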

[2] = compound: COc1cc2nccc(Oc3ccc(NC(=O)C4(C(=O)Nc5ccc(F)cc5)CC4)cc3)c2cc1OC [Cabozantinib] + Cc1nc(NC(=O)N2CCC[C@H]2C(N)=O)sc1-c1ccnc(C(C)(C)C(F)(F)F)c1 [Alpelisib] (partner 2 µM)
How it was run: as §1

[3] = compound: C1=CC(=CC=C1NC(=S)NNC2=C(C=C(C=C2[N+](=O)[O-])C(F)(F)F)[N+](=O)[O-])F [Kobe2602] + Nc1ncn([C@H]2C[C@H](O)[C@@H](CO)O2)c(=O)n1 [Decitabine] (partner 2 µM)
How it was run: as §1

[4] = compound: O[C@@H](COc1cccc2ncccc12)CN1CCN([C@@H]2c3ccccc3[C@@H]3[C@H](c4ccccc42)C3(F)F)CC1 [Zosuquidar] + CS(=O)(=O)CCNCc1ccc(-c2ccc3ncnc(Nc4ccc(OCc5cccc(F)c5)c(Cl)c4)c3c2)o1 [Lapatinib] (partner 2 µM)
How it was run: as §1

Cell Line	relative viability ([1]; first compound 0.2 µM)	relative viability ([1]; first compound 0.6325 µM)	relative viability ([1]; first compound 6.325 µM)	relative viability ([1]; first compound 20 µM)	relative viability ([2]; first compound 0.02 µM)	relative viability ([2]; first compound 0.06325 µM)	relative viability ([2]; first compound 0.2 µM)	relative viability ([2]; first compound 0.6325 µM)	relative viability ([2]; first compound 2 µM)	relative viability ([3]; first compound 0.2 µM)	relative viability ([3]; first compound 0.6325 µM)	relative viability ([3]; first compound 2 µM)	relative viability ([3]; first compound 6.325 µM)	relative viability ([3]; first compound 20 µM)	relative viability ([4]; first compound 0.01 µM)	relative viability ([4]; first compound 0.03162 µM)	relative viability ([4]; first compound 0.1 µM)	relative viability ([4]; first compound 0.3162 µM)	relative viability ([4]; first compound 1 µM)	relative viability ([1]; first compound 2 µM)
NCI-H2085	0.682	0.687	0.684	0.708	1.15	1.01	0.982	0.915	0.843	0.549	0.549	0.568	0.552	0.616	0.796	0.754	0.475	0.826	0.778	–
NCI-H1792	0.253	0.344	0.316	0.31	0.721	0.799	0.721	0.557	0.657	0.489	0.512	0.461	0.472	0.526	0.9	0.893	0.837	0.839	0.795	0.249
NCI-H2405	0.418	0.431	0.393	0.452	–	0.858	0.838	0.744	0.67	0.737	0.749	0.732	0.745	0.806	1.17	0.971	1.15	1.24	1.11	0.411
ABC-1	0.215	0.233	0.211	0.227	0.865	1.16	1.01	1.01	0.995	1.11	1.31	1.05	1.18	1.16	1.17	1.14	1.24	1.19	1.05	–
201T	0.463	0.449	0.394	0.405	1.03	1.05	0.981	0.99	0.958	0.89	0.892	0.872	0.949	0.876	0.996	1.05	0.881	1.02	0.997	0.425
NCI-H1755	0.615	0.608	0.662	0.568	0.993	0.919	0.882	0.877	0.764	0.711	0.692	0.738	0.698	0.764	1	0.946	0.951	1.04	1.08	0.601
NCI-H650	0.454	0.538	0.457	0.452	1.04	1.01	1.13	1.05	0.926	0.313	0.304	0.32	0.289	0.376	0.845	0.879	–	1.49	0.881	0.471
NCI-H1651	0.415	0.37	0.333	0.414	0.883	0.998	0.97	0.952	0.728	0.588	0.481	0.71	0.578	0.936	0.866	0.902	0.865	1.02	0.943	0.356
NCI-H1437	0.335	0.282	0.297	0.352	1.03	1.03	0.992	1.02	0.934	0.578	0.495	0.611	0.559	0.491	0.825	0.669	0.747	0.908	0.792	0.279
NCI-H1975	0.433	0.442	0.379	0.388	0.675	0.807	0.669	0.604	0.623	0.402	0.427	0.419	0.379	0.4	0.796	0.7	0.945	0.991	0.858	0.427
BEN	0.264	0.295	0.246	0.25	0.992	1.11	1.01	1.06	0.776	0.707	0.734	0.709	0.711	0.92	0.79	0.718	0.594	0.825	0.745	0.302
NCI-H460	0.516	0.513	0.514	0.499	0.667	0.61	0.459	0.579	0.483	–	0.486	0.525	0.472	0.454	0.927	1	0.983	0.977	1.04	0.614
NCI-H1944	0.212	0.216	0.201	0.209	–	0.848	0.78	0.75	0.778	0.502	0.452	0.46	0.439	0.48	0.822	0.797	0.585	0.925	0.794	0.206
HOP-62	0.644	0.693	0.698	0.603	0.981	1.02	1.43	0.807	1.08	0.236	0.203	0.201	0.251	0.243	0.862	1.05	0.951	1.07	1.07	0.66
HCC-366	0.669	0.642	0.584	0.61	0.585	0.619	0.445	0.328	0.294	0.31	0.337	0.333	0.34	0.36	1.08	1.08	1.15	1.01	1.15	0.618
NCI-H3122	0.425	0.402	0.394	0.364	0.875	0.778	0.731	0.97	0.956	0.46	0.496	0.471	0.402	0.391	0.997	0.906	1	1.01	1.01	0.378

Cell Line	relative viability ([1]; first compound 0.2 µM)	relative viability ([1]; first compound 0.6325 µM)	relative viability ([1]; first compound 6.325 µM)	relative viability ([1]; first compound 20 µM)	relative viability ([2]; first compound 0.02 µM)	relative viability ([2]; first compound 0.06325 µM)	relative viability ([2]; first compound 0.2 µM)	relative viability ([2]; first compound 0.6325 µM)	relative viability ([2]; first compound 2 µM)	relative viability ([3]; first compound 0.2 µM)	relative viability ([3]; first compound 0.6325 µM)	relative viability ([3]; first compound 2 µM)	relative viability ([3]; first compound 6.325 µM)	relative viability ([3]; first compound 20 µM)	relative viability ([4]; first compound 0.01 µM)	relative viability ([4]; first compound 0.03162 µM)	relative viability ([4]; first compound 0.1 µM)	relative viability ([4]; first compound 0.3162 µM)	relative viability ([4]; first compound 1 µM)	relative viability ([1]; first compound 2 µM)
NCI-H1355	0.479	0.479	0.415	0.433	0.934	0.873	0.904	0.857	0.732	0.312	0.368	0.301	0.346	0.358	0.993	1	0.759	1.11	1	0.476
A549	0.163	0.182	0.192	0.196	0.877	0.884	0.833	0.809	0.794	0.228	0.266	0.414	0.251	0.247	0.958	0.935	0.984	0.977	0.94	0.199
NCI-H2170	0.414	0.475	0.406	0.403	0.842	0.958	0.723	0.854	0.781	0.492	0.455	0.481	0.449	0.478	0.256	0.282	0.256	0.308	0.283	0.423
NCI-H1734	0.413	0.408	0.347	0.388	0.718	0.681	0.717	0.654	0.638	0.49	0.539	0.497	0.48	0.481	1.03	1.02	1.1	1.07	1.13	0.422
LXF-289	0.495	0.577	0.536	0.518	1.11	1.09	1.01	1	0.997	0.387	0.432	0.386	0.381	0.378	0.876	0.908	0.872	0.913	0.923	0.494
SK-LU-1	0.618	0.682	0.526	0.597	–	1.29	0.983	0.718	0.705	0.672	0.702	0.631	0.581	0.64	0.905	0.918	1.02	0.79	1.01	0.584
NCI-H2087	0.437	0.47	0.471	0.438	1.07	1.12	0.978	1.03	0.995	0.313	0.271	0.27	0.281	0.309	0.931	0.776	1.06	1.19	1.19	0.462
SK-MES-1	0.676	0.715	0.589	0.455	1.08	0.993	0.846	0.826	0.816	0.411	0.378	0.335	0.396	0.321	0.448	0.401	0.445	0.495	0.517	0.683
HCC-78	0.693	0.699	0.727	0.9	0.26	0.298	0.227	0.201	0.198	0.65	0.711	0.6	0.724	0.727	0.866	1.03	–	0.893	0.572	0.736
NCI-H1793	0.33	0.398	0.333	0.446	0.845	0.864	0.561	0.759	0.637	0.482	0.485	0.656	0.664	0.472	0.916	0.625	–	0.835	1.11	0.399
H3255	0.339	0.359	0.315	0.334	0.675	0.635	–	0.779	0.644	0.554	0.719	0.57	0.634	0.653	0.264	0.295	0.235	0.234	0.256	0.422
HCC-15	0.482	0.494	0.43	0.363	0.881	0.933	0.925	0.905	0.761	0.662	0.649	0.537	0.627	0.62	0.827	0.861	0.764	0.881	0.976	0.443
PC-14	0.59	0.804	0.699	0.592	1	1.03	–	0.901	0.868	0.224	0.201	0.235	0.234	0.247	0.316	0.284	0.259	0.416	0.288	0.558
NCI-H2023	0.419	0.442	0.352	0.244	0.613	0.591	0.559	0.514	0.335	0.232	0.218	0.207	0.199	0.196	0.848	0.856	0.712	1.45	0.955	0.432
HCC-44	0.207	0.21	0.239	0.322	0.864	0.784	0.808	0.757	0.855	0.993	0.894	0.897	0.896	0.91	0.948	1.08	1.05	0.967	1.06	0.249
COR-L23	0.469	0.453	0.463	0.422	0.717	0.883	0.855	0.699	0.59	0.455	0.462	0.409	0.468	0.515	0.953	0.934	0.968	1.15	1.34	0.427
